Measurements as given in ChEMBL document CHEMBL1201862, “PubChem BioAssay data set” (2004).
Active and inactive are the calls of the source.

Assays:
[1] = molecular target: T1, Orexin receptor type 2 (Homo sapiens, UniProt O43614); experiment: Counterscreen assay for antagonists of the orexin 1 receptor (OX1R; HCRTR1): Homogeneous Time Resolved Fluorescence (HTRF)-based cell-based dose response assay for antagonists of the orexin 2 receptor (OX2R; HCRTR2), run by assay provider.; assay type: functional
T1 sequence (O43614 whole entry): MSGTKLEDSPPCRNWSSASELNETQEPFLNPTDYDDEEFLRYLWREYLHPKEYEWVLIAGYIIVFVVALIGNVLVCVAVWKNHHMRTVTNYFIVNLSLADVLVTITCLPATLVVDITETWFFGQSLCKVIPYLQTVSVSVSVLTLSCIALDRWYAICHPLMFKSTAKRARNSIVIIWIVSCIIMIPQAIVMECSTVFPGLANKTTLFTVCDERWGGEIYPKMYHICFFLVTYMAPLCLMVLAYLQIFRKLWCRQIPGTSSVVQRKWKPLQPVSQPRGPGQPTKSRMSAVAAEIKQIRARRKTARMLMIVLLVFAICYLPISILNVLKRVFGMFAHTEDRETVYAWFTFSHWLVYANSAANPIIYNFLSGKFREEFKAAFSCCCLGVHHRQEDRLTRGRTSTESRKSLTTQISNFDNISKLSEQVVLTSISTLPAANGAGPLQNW

[2] = (§1) Counterscreen for antagonists of the orexin 1 receptor (OX1R; HCRTR1): Fluorescence-based cell-based high throughput dose response assay to identify antagonists of the parental CHO cell line. [Related pubchem assays (depositor defined):AID434989, AID435008, AID463079, AID485270, AID492963, AID492964, AID492965, AID493232, AID504699, AID504701]; assay type: functional
[3] = molecular target: T2, Orexin/Hypocretin receptor type 1 (Homo sapiens, UniProt O43613); experiment: Homogeneous Time Resolved Fluorescence (HTRF)-based cell-based high throughput dose response assay for antagonists of the orexin 1 receptor (OX1R; HCRTR1). [Related pubchem assays (depositor defined):AID434989, AID435008, AID463079, AID485270, AID492963, AID492964, AID492965, AID493232, AID504717, AID504718]; assay type: functional
T2 sequence (O43613 whole entry): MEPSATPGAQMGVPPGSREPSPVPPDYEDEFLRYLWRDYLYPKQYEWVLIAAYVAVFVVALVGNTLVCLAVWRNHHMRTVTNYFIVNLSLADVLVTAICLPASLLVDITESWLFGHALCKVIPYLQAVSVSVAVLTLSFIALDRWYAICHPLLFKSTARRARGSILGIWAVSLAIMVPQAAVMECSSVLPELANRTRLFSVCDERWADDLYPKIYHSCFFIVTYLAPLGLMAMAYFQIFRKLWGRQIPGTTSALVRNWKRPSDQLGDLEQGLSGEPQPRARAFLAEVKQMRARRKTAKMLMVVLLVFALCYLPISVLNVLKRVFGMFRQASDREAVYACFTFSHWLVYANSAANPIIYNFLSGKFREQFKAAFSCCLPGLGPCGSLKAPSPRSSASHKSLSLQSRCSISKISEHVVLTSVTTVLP

[4] = system: CHO-K1; experiment: as §1, with “Homogeneous time resolved fluorescence (HTRF)-based” for “Fluorescence-based”, “cell-based” for “cell-based high throughput”, “CHO-K1” for “CHO”; assay type: functional; settings: Cricetulus griseus;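 further: potency for inhibition of ATP-stimulated IP1 production as antagonists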
[5] = molecular target: T2, Orexin/Hypocretin receptor type 1; experiment: Fluorescence-based cell-based high throughput dose response assay for antagonists of the orexin 1 receptor (OX1R; HCRTR1). [Related pubchem assays (depositor defined):AID434989, AID435008, AID463079, AID485270, AID492963, AID492964, AID492965, AID493232, AID504717, AID504718]; assay type: functional
[6] = molecular target: T1, Orexin receptor type 2; experiment: Counterscreen assay for antagonists of the orexin 1 receptor (OX1R; HCRTR1): Fluorescence-based cell-based dose response assay for antagonists of the orexin 2 receptor (OX2R; HCRTR2), run by assay provider.; assay type: functional
[7] = system: P388; experiment: cells; assay type: functional; settings: Mus musculus
[8] = system: SN12K1; experiment: cells; assay type: functional; settings: Homo sapiens
[9] = molecular target: Melanocortin receptor 4 (Homo sapiens, UniProt P32245); experiment: MC4R antagonist potency on cAMP, dose response, cell-based, TR-FRET, biased antagonists (AID 602298); assay type: functional;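 further: antagonist potency against agonist-stimulated cAMP production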
Melanocortin receptor 4, sequence (P32245 whole entry): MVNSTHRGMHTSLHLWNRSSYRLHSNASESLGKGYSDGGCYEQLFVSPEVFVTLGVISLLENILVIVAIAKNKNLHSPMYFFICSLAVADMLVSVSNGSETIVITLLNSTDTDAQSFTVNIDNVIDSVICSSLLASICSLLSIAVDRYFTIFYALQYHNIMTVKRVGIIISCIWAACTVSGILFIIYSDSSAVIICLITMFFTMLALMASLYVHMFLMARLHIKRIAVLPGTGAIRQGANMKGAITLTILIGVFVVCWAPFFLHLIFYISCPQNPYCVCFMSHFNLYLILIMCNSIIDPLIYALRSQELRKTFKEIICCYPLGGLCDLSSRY

[10] = system: P388/ADR; experiment: cells; assay type: functional; settings: Mus musculus
[11] = nonselective inhibitors of cellular cAMP signaling, dose response, counter-screen for MC4R biased antagonist project, cell-based, TR-FRET cAMP detection (AID 602305); assay type: functional;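 further: U2OS cells stimulated with forskolin near its EC80 as the cAMP inducer; potency is for inhibition of forskolin-stimulated cAMP signaling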
[12] = molecular target: T3, Insulin-degrading enzyme (Homo sapiens, UniProt P14735); experiment: activators of recombinant IDE enzyme, dose response, counter-screen for IDE activator project, biochemical, fluorescence polarization (AID 588681)
T3 sequence (P14735 whole entry): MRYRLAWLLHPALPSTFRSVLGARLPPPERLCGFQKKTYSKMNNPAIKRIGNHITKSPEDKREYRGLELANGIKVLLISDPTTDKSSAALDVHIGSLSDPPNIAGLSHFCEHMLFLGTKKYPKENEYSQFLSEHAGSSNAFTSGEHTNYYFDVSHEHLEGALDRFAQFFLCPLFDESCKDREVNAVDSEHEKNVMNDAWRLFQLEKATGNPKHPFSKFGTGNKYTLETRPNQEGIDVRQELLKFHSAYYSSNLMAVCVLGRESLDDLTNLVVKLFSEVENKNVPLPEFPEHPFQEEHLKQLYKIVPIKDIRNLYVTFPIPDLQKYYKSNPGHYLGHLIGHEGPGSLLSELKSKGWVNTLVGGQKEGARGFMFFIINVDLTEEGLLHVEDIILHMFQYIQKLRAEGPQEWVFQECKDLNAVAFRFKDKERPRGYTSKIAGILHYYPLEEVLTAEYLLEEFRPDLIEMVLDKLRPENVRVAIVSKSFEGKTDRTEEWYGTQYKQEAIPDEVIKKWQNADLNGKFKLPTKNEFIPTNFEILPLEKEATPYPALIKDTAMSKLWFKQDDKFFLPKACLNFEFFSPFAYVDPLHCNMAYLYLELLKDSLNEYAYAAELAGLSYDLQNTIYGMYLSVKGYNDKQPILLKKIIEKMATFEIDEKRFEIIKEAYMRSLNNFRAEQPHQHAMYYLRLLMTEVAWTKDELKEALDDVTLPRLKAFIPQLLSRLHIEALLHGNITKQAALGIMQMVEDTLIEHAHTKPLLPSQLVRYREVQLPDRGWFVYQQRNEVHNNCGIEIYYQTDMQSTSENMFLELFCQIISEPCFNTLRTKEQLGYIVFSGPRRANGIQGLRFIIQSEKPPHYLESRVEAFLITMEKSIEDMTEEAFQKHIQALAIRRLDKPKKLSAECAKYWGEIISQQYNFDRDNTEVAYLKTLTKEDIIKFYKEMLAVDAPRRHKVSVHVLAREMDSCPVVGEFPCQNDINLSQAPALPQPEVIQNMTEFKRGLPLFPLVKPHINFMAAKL

[13] = system: HEK293; experiment: HEK cell cytotoxicity by LDH release, dose response, cytotoxicity control for IDE activator project, fluorescence, HEK cells (AID 588440); assay type: functional, cell-based; settings: Homo sapiens;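 further: cytotoxicity by LDH release measuring loss of membrane integrity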
[14] = molecular target: T4, Cytochrome P450 1A2 (Homo sapiens, UniProt P05177);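 further: PubChem cytochrome P450 panel assay, CYP1A2 panel member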
T4 sequence (P05177 whole entry): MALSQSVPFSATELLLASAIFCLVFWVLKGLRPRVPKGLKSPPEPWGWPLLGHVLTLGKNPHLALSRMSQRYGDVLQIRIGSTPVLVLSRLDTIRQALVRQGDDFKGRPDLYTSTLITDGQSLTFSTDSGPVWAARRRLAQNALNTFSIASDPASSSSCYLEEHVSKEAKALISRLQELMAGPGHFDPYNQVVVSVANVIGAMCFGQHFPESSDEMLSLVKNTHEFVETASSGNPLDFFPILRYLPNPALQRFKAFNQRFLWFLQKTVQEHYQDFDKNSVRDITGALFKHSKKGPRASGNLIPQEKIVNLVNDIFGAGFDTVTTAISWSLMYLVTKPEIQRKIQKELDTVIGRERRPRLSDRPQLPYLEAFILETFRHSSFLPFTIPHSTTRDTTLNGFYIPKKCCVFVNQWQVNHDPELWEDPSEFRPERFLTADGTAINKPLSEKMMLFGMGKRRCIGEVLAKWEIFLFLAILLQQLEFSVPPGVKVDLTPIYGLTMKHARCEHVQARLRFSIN

[15] = system: HEK293; experiment: optical interference in Abeta FP readout, dose response, artefact control for IDE activator project, biochemical, fluorescence polarization (AID 588442); assay type: functional, cell-based; settings: Homo sapiens
[16] = molecular target: T3, Insulin-degrading enzyme; experiment: activators of endogenous IDE in HEK cells, dose response, cell-based, fluorescence polarization (AID 588439); assay type: functional
[17] = molecular target: T5, Carboxy-terminal domain RNA polymerase II polypeptide A small phosphatase 1 (Homo sapiens, UniProt Q9GZU7); experiment: inhibitors of CTDSP1, concentration-response testing, biochemical assay, absorbance-based, actives from ultra-high-throughput screening (AID 540297); assay type: functional
T5 sequence (Q9GZU7 whole entry): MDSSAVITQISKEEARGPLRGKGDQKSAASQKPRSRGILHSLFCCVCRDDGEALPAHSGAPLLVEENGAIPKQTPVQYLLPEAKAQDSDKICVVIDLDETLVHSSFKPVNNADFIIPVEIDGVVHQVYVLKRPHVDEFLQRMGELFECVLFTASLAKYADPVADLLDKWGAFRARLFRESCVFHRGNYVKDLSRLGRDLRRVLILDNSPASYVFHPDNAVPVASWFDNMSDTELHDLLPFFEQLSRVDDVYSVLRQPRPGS

Q: Which results are given for `N#Cc1cccn1-c1nccc(-c2cccs2)n1`?
A: IC50 [1]: > 50 µM (inactive); IC50 [2]: > 49.7 µM (inactive); IC50 [3]: 3.66 µM (active); IC50 [4]: > 66.2 µM (inactive); IC50 [5]: 20.3 µM (inactive); IC50 [6]: > 88.8 µM (inactive)

Q: For `CC(C)Cc1ccc(C(C)CC2=CCC(CN(C)C)C2=O)cc1` (stereo not drawn), which GI50 [7] is on record?
A: 2.02 µM (inactive)

Q: And the GI50 [8]?
A: 3.33 µM (inactive)

Q: And the IC50 [9]?
A: 8.78 µM (active)

Q: And the GI50 [10]?
A: 1.09 µM (active)

Q: And the IC50 [11]?
A: > 64.7 µM (inactive)

Q: With `Cc1ccccc1OC/C(O)=C(\C#N)c1nc2ccccc2[nH]1` as the compound, how does the EC50 [12] read?
A: > 54.7 µM (inactive)

Q: And the IC50 [13]?
A: > 89.2 µM (inactive)

Q: And the AC50 [14]?
A: 0.282 µM (inconclusive)

Q: What about the EC50 [15] of the same compound?
A: > 54.7 µM (inactive)

Q: What about the EC50 [16] of the same compound?
A: > 54.7 µM (inactive)

Q: Which results are given for `O=C(OCc1cc(=O)n2c(n1)sc1ccccc12)c1cccc(O)c1`?
A: IC50 [17]: 3.87 µM (active); IC50 [1]: > 50 µM (inactive); IC50 [2]: 37 µM (inactive); IC50 [3]: 5.46 µM (active); IC50 [4]: > 66.2 µM (inactive); IC50 [5]: 5.73 µM (active); IC50 [6]: > 88.8 µM (inactive)
